Assay results published in the NIST ThermoML archive (doi:10.1016/j.jct.2019.06.018).
Numbers after ± are expanded uncertainties.

Tests used:
[1] = Molar enthalpy of transition or fusion; conditions: Crystal; DSC
[2] = Crystal; DSC

Molar enthalpy of transition or fusion [1]: 7.08 ± 0.956 kcal/mol | Triple point temperature [2]: 400.15 ± 1.2 K
SMILES: CC1=NN(c2ccccc2)C(=O)C1 [Edaravone]
